Measurements as given in BindingDB's records for doi:10.1016/j.bioorg.2016.11.007 (University of Karachi, 2017).

Experiments:
[1] = target: T1, Thymidine phosphorylase (Escherichia coli (strain K12), UniProt P07650); assay: Thymidine Phosphorylase Inhibition Assay; details: 30 °C
Description: TP inhibition assay was performed spectrophotometrically in 96-well plate. […] The total reaction volume was 200 μL. 20 μL of TP enzyme (0.058 unit/well) was incubated with 10 μL of test compounds (0.5 mM) for 10 min at 30 C. […] Every experiment was run in triplicate.

[2] = target: T1, Thymidine phosphorylase; assay: Kinetic Assay; details: 30 °C

T1 sequence (P07650 whole entry): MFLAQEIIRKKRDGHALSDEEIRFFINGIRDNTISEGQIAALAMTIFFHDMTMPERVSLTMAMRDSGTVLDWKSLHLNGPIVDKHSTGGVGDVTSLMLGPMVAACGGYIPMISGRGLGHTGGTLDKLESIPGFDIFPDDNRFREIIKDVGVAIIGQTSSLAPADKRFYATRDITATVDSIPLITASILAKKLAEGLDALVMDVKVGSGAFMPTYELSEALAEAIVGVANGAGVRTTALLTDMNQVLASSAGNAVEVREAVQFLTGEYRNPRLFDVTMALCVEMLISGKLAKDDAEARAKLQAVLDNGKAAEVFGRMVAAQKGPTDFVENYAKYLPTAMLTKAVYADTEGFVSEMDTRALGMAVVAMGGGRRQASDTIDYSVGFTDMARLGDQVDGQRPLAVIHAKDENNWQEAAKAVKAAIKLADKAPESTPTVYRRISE

IC50 [1] | Ki [2] | SMILES
146 µM |  | Cc1cn([C@H]2C[C@H](OC(=O)c3ccc(Cl)cc3Cl)[C@@H](COC(=O)c3ccc(Cl)cc3Cl)O2)c(=O)[nH]c1=O [5'-O-(2'',4''-Dichlorobenzoyl)-thymidine-3'-O-2'',4''-dichlorobenzoate (13)]
90 µM |  | COc1ccccc1C(=O)OC[C@H]1O[C@@H](n2cc(C)c(=O)[nH]c2=O)C[C@@H]1O [5'-O-(2''-Methoxybenzoyl)-thymidine (11)]
33.3 µM | 11.4 µM | Cc1cn([C@H]2C[C@H](O)[C@@H](COC(=O)c3cccc(Br)c3)O2)c(=O)[nH]c1=O [5'-O-(3''-Bromobenzoyl)-thymidine (15)]
7.5 µM | 7.81 µM | Cc1cn([C@H]2C[C@H](OC(=O)c3ccc(Br)cc3)[C@@H](COC(=O)c3ccc(Br)cc3)O2)c(=O)[nH]c1=O [5'-O-(4''-Bromobenzoyl)-thymidine-3'-O-4''-bromobenzoate (14)]
18.8 µM | 12.8 µM | COc1ccc(C(=O)OC[C@H]2O[C@@H](n3cc(C)c(=O)[nH]c3=O)C[C@@H]2O)cc1 [5'-O-(4''-Methoxybenzoyl)-thymidine (10)]
18.5 µM | 12.5 µM | Cc1ccc(C(=O)OC[C@H]2O[C@@H](n3cc(C)c(=O)[nH]c3=O)C[C@@H]2O)cc1 [5'-O-(4''-Methylbenzoyl)-thymidine (4)]
